Data from the supplement of paper PMC10307832.

Legend:
Experiment in all cases: relative viability (nuclei count vs DMSO), 5 days (fraction); higher = more cells survive
[1] = tested on: EKVX
In short: (§1)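 Lung cancer cell lines were pin-tool dosed in 1536-well plates on the day after seeding, with either a lone drug or a fixed anchor-drug dose plus five library-drug doses (not always all listed) in √10 steps. Nuclei were counted on 4× images after 5 days. Relative viability is the ratio of treated-well to vehicle-well nuclei counts, with each value a median of duplicate plates.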

[2] = tested on: LCLC-97TM1
In short: as §1

[3] = tested on: NCI-H1437
In short: as §1

[4] = tested on: NCI-H1650
In short: as §1

[5] = tested on: NCI-H1666
In short: as §1

[6] = tested on: NCI-H1792
In short: as §1

[7] = tested on: NCI-H1915
In short: as §1

[8] = tested on: NCI-H1975
In short: as §1

[9] = tested on: NCI-H2342
In short: as §1

[10] = tested on: NCI-H23
In short: as §1

[11] = tested on: NCI-H322M
In short: as §1

[12] = tested on: NCI-H358
In short: as §1

Work on `CCNC(=O)c1noc(-c2cc(C(C)C)c(O)cc2O)c1-c1ccc(CN2CCOCC2)cc1` [Luminespib] + N=C(N)NC(=N)NCCc1ccccc1 [Phenformin] (partner 250 µM) yielded a relative viability ([1]; first compound 0.002 µM) of 0.236, a relative viability ([1]; first compound 0.006325 µM) of 0.209 and a relative viability ([1]; first compound 0.06325 µM) of 0.223. It also gave a relative viability ([1]; first compound 0.2 µM) of 0.104, a relative viability ([2]; first compound 0.002 µM) of 0.399 and a relative viability ([2]; first compound 0.006325 µM) of 0.374. The relative viability ([2]; first compound 0.02 µM) was 0.426, the relative viability ([2]; first compound 0.06325 µM) was 0.428 and the relative viability ([2]; first compound 0.2 µM) was 0.102. For the same molecule, the relative viability ([3]; first compound 0.002 µM) was 0.325, the relative viability ([3]; first compound 0.006325 µM) was 0.3 and the relative viability ([3]; first compound 0.02 µM) was 0.358. For the same molecule, the relative viability ([3]; first compound 0.06325 µM) was 0.173, the relative viability ([3]; first compound 0.2 µM) was 0.154 and the relative viability ([4]; first compound 0.002 µM) was 0.48. The relative viability ([4]; first compound 0.006325 µM) was 0.219, the relative viability ([4]; first compound 0.02 µM) was 0.165 and the relative viability ([4]; first compound 0.06325 µM) was 0.15. For the same molecule, the relative viability ([4]; first compound 0.2 µM) was 0.159, the relative viability ([5]; first compound 0.002 µM) was 0.583 and the relative viability ([5]; first compound 0.006325 µM) was 0.533. It also gave a relative viability ([5]; first compound 0.02 µM) of 0.574, a relative viability ([5]; first compound 0.06325 µM) of 0.532 and a relative viability ([5]; first compound 0.2 µM) of 0.538. For the same molecule, the relative viability ([6]; first compound 0.002 µM) was 0.265, the relative viability ([6]; first compound 0.006325 µM) was 0.263 and the relative viability ([6]; first compound 0.02 µM) was 0.101. For the same molecule, the relative viability ([6]; first compound 0.06325 µM) was 0.0593, the relative viability ([6]; first compound 0.2 µM) was 0.077 and the relative viability ([7]; first compound 0.002 µM) was 0.361. It also gave a relative viability ([7]; first compound 0.006325 µM) of 0.352, a relative viability ([7]; first compound 0.02 µM) of 0.407 and a relative viability ([7]; first compound 0.06325 µM) of 0.293. The relative viability ([7]; first compound 0.2 µM) was 0.0788, the relative viability ([8]; first compound 0.002 µM) was 0.401 and the relative viability ([8]; first compound 0.006325 µM) was 0.37. It also gave a relative viability ([8]; first compound 0.02 µM) of 0.169, a relative viability ([8]; first compound 0.06325 µM) of 0.118 and a relative viability ([8]; first compound 0.2 µM) of 0.118. For the same molecule, the relative viability ([9]; first compound 0.002 µM) was 0.549, the relative viability ([9]; first compound 0.006325 µM) was 0.581 and the relative viability ([9]; first compound 0.02 µM) was 0.454. It also gave a relative viability ([9]; first compound 0.06325 µM) of 0.606, a relative viability ([9]; first compound 0.2 µM) of 0.355 and a relative viability ([10]; first compound 0.002 µM) of 0.821. It also gave a relative viability ([10]; first compound 0.006325 µM) of 0.727, a relative viability ([10]; first compound 0.02 µM) of 0.611 and a relative viability ([10]; first compound 0.06325 µM) of 0.359. The relative viability ([10]; first compound 0.2 µM) was 0.16, the relative viability ([11]; first compound 0.002 µM) was 0.801 and the relative viability ([11]; first compound 0.006325 µM) was 0.729. The relative viability ([11]; first compound 0.02 µM) was 0.717, the relative viability ([11]; first compound 0.06325 µM) was 0.287 and the relative viability ([11]; first compound 0.2 µM) was 0.278. The relative viability ([12]; first compound 0.002 µM) was 0.348, the relative viability ([12]; first compound 0.006325 µM) was 0.356 and the relative viability ([12]; first compound 0.02 µM) was 0.152.
